Results: patent publication US8278345B2, “Inhibitors of glutaminyl cyclase” (Probiodrug AG, priority 2006, dated 2012)
Read-outs that look alike come from different tables or passages of the source.

Molecular target: hQC (Homo sapiens, UniProt Q16769)
Assay: Inhibitor assay for glutaminyl cyclase activity (fluorometric, H-Gln-βNA / H-Gln-AMC)
Assay type: biochemical
Procedure, shortened: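 Coupled fluorometric assay at 30 °C with pyroglutamyl aminopeptidase, in Tris/HCl pH 8.0 with EDTA, substrate H-Gln-βNA (0.2 mM; ex/em 320/410 nm) or H-Gln-AMC (ex/em 380/460 nm), initiated by QC. Screening: 4 mM inhibitor, substrate at 1 KM; Ki from progress curves fitted to competitive inhibition.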

Sequence of hQC (Q16769 29-361): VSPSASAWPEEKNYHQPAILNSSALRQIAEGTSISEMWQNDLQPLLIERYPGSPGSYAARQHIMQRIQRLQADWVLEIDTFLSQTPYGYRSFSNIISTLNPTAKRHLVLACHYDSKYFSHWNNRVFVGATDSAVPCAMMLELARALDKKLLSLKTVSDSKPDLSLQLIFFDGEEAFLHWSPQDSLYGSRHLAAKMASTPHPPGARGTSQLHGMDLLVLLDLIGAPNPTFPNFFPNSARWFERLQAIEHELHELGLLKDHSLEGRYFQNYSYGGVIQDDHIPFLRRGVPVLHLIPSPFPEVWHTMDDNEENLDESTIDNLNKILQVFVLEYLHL

Structure (SMILES)	IC50 (read-out: IC50) [nM]	IC50 (compound from preparative synthesis, purified, read-out: IC50 hQC) [nM]
CCC1=C(O)C(=O)N(CCCn2ccnc2)C1C1CC1 (centres unmarked) [Compound 246, 5-Cyclopropyl-4-ethyl-3-hydroxy-1-(3-imidazol-1-yl-propyl)-1,5-dihydro-pyrrol-2-one]	1300	
CCCCCC1=C(O)C(=O)N(CCCn2ccnc2)C1c1ccc(OC)cc1 (centres unmarked) [Compound 193, 3-Hydroxy-1-(3-imidazol-1-yl-propyl)-5-(4-methoxy-phenyl)-4-pentyl-1,5-dihydro-pyrrol-2-one]	40	1040
CC(C)C1=C(O)C(=O)N(CCCn2ccnc2)C1Cc1ccccc1 (centres unmarked) [Compound 68, 5-Benzyl-3-hydroxy-1-(3-imidazol-1-yl-propyl)-4-isopropyl-1,5-dihydro-pyrrol-2-one]	40	
O=C(C1=C(O)C(=O)N(c2ccc3[nH]cnc3c2)C1c1ccc(CO)o1)c1cccs1 (centres unmarked) [Compound 369, 1-(1H-Benzoimidazol-5-yl)-3-hydroxy-5-(5-hydroxymethyl-furan-2-yl)-4-(thiophene-2-carbonyl)-1,5-dihydro-pyrrol-2-one]	1570	
CC(=O)C1=C(O)C(=O)N(c2ccc3[nH]cnc3c2)C1C1CC=CCC1 (centres unmarked) [Compound 375, 4-Acetyl-1-(1H-benzoimidazol-5-yl)-5-cyclohex-3-enyl-3-hydroxy-1,5-dihydro-pyrrol-2-one]	9580	
O=C1C(O)=C(c2ccc(O)cc2)C(C(F)(F)F)N1CCCn1ccnc1 (centres unmarked) [Compound 166, 3-Hydroxy-4-(4-hydroxy-phenyl)-1-(3-imidazol-1-yl-propyl)-5-trifluoromethyl-1,5-dihydro-pyrrol-2-one]	400	
CCC1=C(O)C(=O)N(CCCn2ccnc2)C1c1ccco1 (centres unmarked) [Compound 247, 4-Ethyl-5-furan-2-yl-3-hydroxy-1-(3-imidazol-1-yl-propyl)-1,5-dihydro-pyrrol-2-one]	1300	
CCCCCC1=C(O)C(=O)N(CCCn2ccnc2)C1c1cc[nH]n1 (centres unmarked) [Compound 188, 3-Hydroxy-1-(3-imidazol-1-yl-propyl)-4-pentyl-5-(1H-pyrazol-3-yl)-1,5-dihydro-pyrrol-2-one]	400	
O=C(O)CC1=C(O)C(=O)N(c2ccc3[nH]cnc3c2)C1c1cc(Br)ccc1F (centres unmarked) [Compound 338, [1-(1H-Benzoimidazol-5-yl)-2-(5-bromo-2-fluoro-phenyl)-4-hydroxy-5-oxo-2,5-dihydro-1H-pyrrol-3-yl]-acetic acid]	2200	
CC(C)(C)C(=O)C1=C(O)C(=O)N(c2ccc3[nH]cnc3c2)C1c1cc2ccccc2nc1Cl (centres unmarked) [Compound 392, 1-(1H-Benzoimidazol-5-yl)-5-(2-chloro-quinolin-3-yl)-4-(2,2-dimethyl-propionyl)-3-hydroxy-1,5-dihydro-pyrrol-2-one]	4450	
Cc1ccc(C2C(c3cccc(O)c3)=C(O)C(=O)N2CCCn2ccnc2)o1 (centres unmarked) [Compound 11, 3-Hydroxy-4-(3-hydroxy-phenyl)-1-(3-imidazol-1-yl-propyl)-5-(5-methyl-furan-2-yl)-1,5-dihydro-pyrrol-2-one]	2200	
Cc1ccc(C2C(C(=O)c3cccs3)=C(O)C(=O)N2c2ccc3[nH]cnc3c2)o1 (centres unmarked) [Compound 321, 1-(1H-Benzoimidazol-5-yl)-3-hydroxy-5-(5-methyl-furan-2-yl)-4-(thiophene-2-carbonyl)-1,5-dihydro-pyrrol-2-one]	760	
CC(C)(C)C(=O)C1=C(O)C(=O)N(c2ccc3[nH]cnc3c2)C1c1cc[nH]n1 (centres unmarked) [Compound 405, 1-(1H-Benzoimidazol-5-yl)-4-(2,2-dimethyl-propionyl)-3-hydroxy-5-(1H-pyrazol-3-yl)-1,5-dihydro-pyrrol-2-one]	2200	
Cc1ccc(O)c(C2C(C(=O)C3CC3)=C(O)C(=O)N2c2ccc3[nH]cnc3c2)c1 (centres unmarked) [Compound 343, 1-(1H-Benzoimidazol-5-yl)-4-cyclopropanecarbonyl-3-hydroxy-5-(2-hydroxy-5-methyl-phenyl)-1,5-dihydro-pyrrol-2-one]	3280	
CCC/C=C/C1C(c2cccc(O)c2)=C(O)C(=O)N1CCCn1ccnc1 (centres unmarked) [Compound 6, 3-Hydroxy-4-(3-hydroxy-phenyl)-1-(3-imidazol-1-yl-propyl)-5-(pent-1-enyl)-1,5-dihydro-pyrrol-2-one]	5800	
O=C1C(O)=C(c2ccccc2)C(C2CC2)N1CCCn1ccnc1 (centres unmarked) [Compound 105, 5-Cyclopropyl-3-hydroxy-1-(3-imidazol-1-yl-propyl)-4-phenyl-1,5-dihydro-pyrrol-2-one]	400	
CCCC(=O)C1=C(O)C(=O)N(c2ccc3[nH]cnc3c2)C1c1ccnc2ccccc12 (centres unmarked) [Compound 404, 1-(1H-Benzoimidazol-5-yl)-4-butyryl-3-hydroxy-5-quinolin-4-yl-1,5-dihydro-pyrrol-2-one]	1570	
O=C1C(O)=C(c2cccc(O)c2)C(c2ccccc2O)N1CCCn1ccnc1 (centres unmarked) [Compound 14, 3-Hydroxy-5-(2-hydroxy-phenyl)-4-(3-hydroxy-phenyl)-1-(3-imidazol-1-yl-propyl)-1,5-dihydro-pyrrol-2-one]	2200	
O=C1C(O)=C(c2ccc(O)cc2)C(c2ccncc2)N1CCCn1ccnc1 (centres unmarked) [Compound 172, 3-Hydroxy-4-(4-hydroxy-phenyl)-1-(3-imidazol-1-yl-propyl)-5-pyridin-4-yl-1,5-dihydro-pyrrol-2-one]	7600	
CC(C)C1=C(O)C(=O)N(CCCn2ccnc2)C1c1ccc2[nH]ccc2c1 (centres unmarked) [Compound 58, 3-Hydroxy-1-(3-imidazol-1-yl-propyl)-5-(1H-indol-5-yl)-4-isopropyl-1,5-dihydro-pyrrol-2-one]	3100	

The remaining compounds from weak to strong by IC50 (read-out: IC50), led by results:

IC50 (read-out: IC50) [nM]	IC50 (compound from preparative synthesis, purified, read-out: IC50 hQC) [nM]	Structure (SMILES)
7690		Cc1ccc(O)c(C2C(c3c[nH]c4ccccc34)=C(O)C(=O)N2c2ccc3[nH]cnc3c2)c1 (centres unmarked) [Compound 332, 1-(1H-Benzoimidazol-5-yl)-3-hydroxy-5-(2-hydroxy-5-methyl-phenyl)-4-(1H-indol-3-yl)-1,5-dihydro-pyrrol-2-one]
4090		O=C1C(O)=C(c2ccccc2)C(c2cc3ccccc3nc2Cl)N1c1ccc2[nH]cnc2c1 (centres unmarked) [Compound 373, 1-(1H-Benzoimidazol-5-yl)-5-(2-chloro-quinolin-3-yl)-3-hydroxy-4-phenyl-1,5-dihydro-pyrrol-2-one]
3100		CCC/C=C/C1C(CC)=C(O)C(=O)N1CCCn1ccnc1 (centres unmarked) [Compound 222, 4-Ethyl-3-hydroxy-1-(3-imidazol-1-yl-propyl)-5-(pent-1-enyl)-1,5-dihydro-pyrrol-2-one]
2290		CC(=O)C1=C(O)C(=O)N(c2ccc3[nH]cnc3c2)C1C1CC1 (centres unmarked) [Compound 266, 4-Acetyl-1-(1H-benzoimidazol-5-yl)-5-cyclopropyl-3-hydroxy-1,5-dihydro-pyrrol-2-one]
2200		CCCC(=O)C1=C(O)C(=O)N(c2ccc3[nH]cnc3c2)C1C1CC1 (centres unmarked) [Compound 449, 1-(1H-Benzoimidazol-5-yl)-4-butyryl-5-cyclopropyl-3-hydroxy-1,5-dihydro-pyrrol-2-one]
1300		CCC1=C(O)C(=O)N(CCCn2ccnc2)C1c1ccc(CO)o1 (centres unmarked) [Compound 234, 4-Ethyl-3-hydroxy-5-(5-hydroxymethyl-furan-2-yl)-1-(3-imidazol-1-yl-propyl)-1,5-dihydro-pyrrol-2-one]
1300		O=C1C(O)=C(c2ccc(O)cc2)C(C2=CCCCC2)N1CCCn1ccnc1 (centres unmarked) [Compound 164, 5-Cyclohex-1-enyl-3-hydroxy-4-(4-hydroxy-phenyl)-1-(3-imidazol-1-yl-propyl)-1,5-dihydro-pyrrol-2-one]
1030		CC(=O)C1=C(O)C(=O)N(c2ccc3[nH]cnc3c2)C1c1ccc(C(=O)O)o1 (centres unmarked) [Compound 410, 5-[3-Acetyl-1-(1H-benzoimidazol-5-yl)-4-hydroxy-5-oxo-2,5-dihydro-1H-pyrrol-2-yl]-furan-2-carboxylic acid]
1030		CC(C)(C)C(=O)C1=C(O)C(=O)N(c2ccc3[nH]cnc3c2)C1c1ccc2cccc(O)c2n1 (centres unmarked) [Compound 310, 1-(1H-Benzoimidazol-5-yl)-4-(2,2-dimethyl-propionyl)-3-hydroxy-5-(8-hydroxy-quinolin-2-yl)-1,5-dihydro-pyrrol-2-one]
580		Cc1ccc(C2C(C(=O)C3CCCCC3)=C(O)C(=O)N2c2ccc3[nH]cnc3c2)o1 (centres unmarked) [Compound 273, 1-(1H-Benzoimidazol-5-yl)-4-cyclohexanecarbonyl-3-hydroxy-5-(5-methyl-furan-2-yl)-1,5-dihydro-pyrrol-2-one]
400		O=C1C(O)=C(c2ccccc2)C(c2ccccn2)N1CCCn1ccnc1 (centres unmarked) [Compound 101, 3-Hydroxy-1-(3-imidazol-1-yl-propyl)-4-phenyl-5-pyridin-2-yl-1,5-dihydro-pyrrol-2-one]
400		O=C1C(O)=C(c2ccccc2)C(c2c(O)ccc3ccccc23)N1CCCn1ccnc1 (centres unmarked) [Compound 100, 3-Hydroxy-5-(2-hydroxy-naphthalen-1-yl)-1-(3-imidazol-1-yl-propyl)-4-phenyl-1,5-dihydro-pyrrol-2-one]
400		CCC1=C(O)C(=O)N(CCCn2ccnc2)C1c1ccccn1 (centres unmarked) [Compound 243, 4-Ethyl-3-hydroxy-1-(3-imidazol-1-yl-propyl)-5-pyridin-2-yl-1,5-dihydro-pyrrol-2-one]
400		O=C1C(O)=C(c2c[nH]c3ccccc23)C(c2cccs2)N1CCCn1ccnc1 (centres unmarked) [Compound 137, 3-Hydroxy-1-(3-imidazol-1-yl-propyl)-4-(1H-indol-3-yl)-5-thiophen-2-yl-1,5-dihydro-pyrrol-2-one]
400		O=C1C(O)=C(c2ccccc2)C(c2ccc(O)cc2)N1CCCn1ccnc1 (centres unmarked) [Compound 111, 3-Hydroxy-5-(4-hydroxy-phenyl)-1-(3-imidazol-1-yl-propyl)-4-phenyl-1,5-dihydro-pyrrol-2-one]
40		CCCC1C(c2ccc(O)cc2)=C(O)C(=O)N1CCCn1ccnc1 (centres unmarked) [Compound 150, 3-Hydroxy-4-(4-hydroxy-phenyl)-1-(3-imidazol-1-yl-propyl)-5-propyl-1,5-dihydro-pyrrol-2-one]
40		CCCCCC1=C(O)C(=O)N(CCCn2ccnc2)C1c1cc(Cl)cc(Cl)c1O (centres unmarked) [Compound 183, 5-(3,5-Dichloro-2-hydroxy-phenyl)-3-hydroxy-1-(3-imidazol-1-yl-propyl)-4-pentyl-1,5-dihydro-pyrrol-2-one]
